Laboratory results taken from ChEMBL document CHEMBL5260810, “Inhibition of bromodomain-containing protein 9 for the prevention of epigenetically-defined drug resistance” (Bioorg Med Chem Lett, 2017).

What was measured:
Daudi = assay: Cytotoxicity against human Daudi cells measured after 8 days; format: functional, cell-based; conditions: 192 h
[1] = Cytotoxicity against human KMS-28PE cells measured after 8 days; format: functional, cell-based; conditions: 192 h
LCLC-97TM1 = assay: Cytotoxicity against human LCLC-97TM1 cells measured after 8 days; format: functional, cell-based; conditions: LCLC-97TM1, 192 h
[2] = Cytotoxicity against human NCI-H2106 cells measured after 8 days; format: functional, cell-based; conditions: NCI-H2106, 192 h
NCI-H2122 = assay: Cytotoxicity against human NCI-H2122 cells measured after 8 days; format: functional, cell-based; conditions: NCI-H2122, 192 h
SCC-3 = assay: Cytotoxicity against human SCC-3 cells measured after 8 days; format: functional, cell-based; conditions: SCC-3, 192 h
NCI-H292 = assay: Cytotoxicity against human NCI-H292 cells measured after 8 days; format: functional, cell-based; conditions: NCI-H292, 192 h
NCI-H647 = assay: Cytotoxicity against human NCI-H647 cells measured after 8 days; format: functional, cell-based; conditions: NCI-H647, 192 h
SW1573 = assay: Cytotoxicity against human SW1573 cells measured after 8 days; format: functional, cell-based; conditions: SW1573, 192 h
DB = assay: Cytotoxicity against human DB cells measured after 8 days; format: functional, cell-based; conditions: 192 h
JeKo-1 = assay: Cytotoxicity against human JeKo-1 cells measured after 8 days; format: functional, cell-based; conditions: JeKo-1, 192 h
ONS-76 = assay: Cytotoxicity against human ONS-76 cells measured after 8 days; format: functional, cell-based; conditions: ONS-76, 192 h
HCC1419 = assay: Cytotoxicity against human HCC1419 cells measured after 8 days; format: functional, cell-based; conditions: HCC1419, 192 h
HCC38 = assay: Cytotoxicity against human HCC38 cells measured after 8 days; format: functional, cell-based; conditions: HCC38, 192 h
MCF7 = assay: Cytotoxicity against human MCF7 cells measured after 8 days; format: functional, cell-based; conditions: MCF7, 192 h
SK-BR-3 = assay: Cytotoxicity against human SK-BR-3 cells measured after 8 days; format: functional, cell-based; conditions: SK-BR-3, 192 h
[3] = Cytotoxicity against human OVTOKO cells measured after 8 days; format: functional, cell-based; conditions: 192 h
DLD-1 = assay: Cytotoxicity against human DLD-1 cells measured after 8 days; format: functional, cell-based; conditions: DLD-1, 192 h
[4] = Cytotoxicity against human HCA7 cells measured after 8 days; format: functional, cell-based; conditions: HCA-7, 192 h
NCI-H28 = assay: Cytotoxicity against human NCI-H28 cells measured after 8 days; format: functional, cell-based; conditions: NCI-H28, 192 h
LNCaP = assay: Cytotoxicity against human LNCaP/Ner cells measured after 8 days; format: functional, cell-based; conditions: 192 h
SW948 = assay: Cytotoxicity against human SW948 cells measured after 8 days; format: functional, cell-based; conditions: SW948, 192 h
UACC-62 = assay: Cytotoxicity against human UACC-62 cells measured after 8 days; format: functional, cell-based; conditions: UACC-62, 192 h
HCC95 = assay: Cytotoxicity against human HCC95 cells measured after 8 days; format: functional, cell-based; conditions: HCC95, 192 h
HOP-62 = assay: Cytotoxicity against human HOP-62 cells measured after 8 days; format: functional, cell-based; conditions: HOP-62, 192 h
[5] = target: T1, Bromodomain-containing protein 1 (Homo sapiens, UniProt O95696); assay: Binding affinity to human partial length BRD1 (E556 to A688 residues) expressed in bacterial expression system by BROMOscan assay
T1 sequence (O95696 whole entry): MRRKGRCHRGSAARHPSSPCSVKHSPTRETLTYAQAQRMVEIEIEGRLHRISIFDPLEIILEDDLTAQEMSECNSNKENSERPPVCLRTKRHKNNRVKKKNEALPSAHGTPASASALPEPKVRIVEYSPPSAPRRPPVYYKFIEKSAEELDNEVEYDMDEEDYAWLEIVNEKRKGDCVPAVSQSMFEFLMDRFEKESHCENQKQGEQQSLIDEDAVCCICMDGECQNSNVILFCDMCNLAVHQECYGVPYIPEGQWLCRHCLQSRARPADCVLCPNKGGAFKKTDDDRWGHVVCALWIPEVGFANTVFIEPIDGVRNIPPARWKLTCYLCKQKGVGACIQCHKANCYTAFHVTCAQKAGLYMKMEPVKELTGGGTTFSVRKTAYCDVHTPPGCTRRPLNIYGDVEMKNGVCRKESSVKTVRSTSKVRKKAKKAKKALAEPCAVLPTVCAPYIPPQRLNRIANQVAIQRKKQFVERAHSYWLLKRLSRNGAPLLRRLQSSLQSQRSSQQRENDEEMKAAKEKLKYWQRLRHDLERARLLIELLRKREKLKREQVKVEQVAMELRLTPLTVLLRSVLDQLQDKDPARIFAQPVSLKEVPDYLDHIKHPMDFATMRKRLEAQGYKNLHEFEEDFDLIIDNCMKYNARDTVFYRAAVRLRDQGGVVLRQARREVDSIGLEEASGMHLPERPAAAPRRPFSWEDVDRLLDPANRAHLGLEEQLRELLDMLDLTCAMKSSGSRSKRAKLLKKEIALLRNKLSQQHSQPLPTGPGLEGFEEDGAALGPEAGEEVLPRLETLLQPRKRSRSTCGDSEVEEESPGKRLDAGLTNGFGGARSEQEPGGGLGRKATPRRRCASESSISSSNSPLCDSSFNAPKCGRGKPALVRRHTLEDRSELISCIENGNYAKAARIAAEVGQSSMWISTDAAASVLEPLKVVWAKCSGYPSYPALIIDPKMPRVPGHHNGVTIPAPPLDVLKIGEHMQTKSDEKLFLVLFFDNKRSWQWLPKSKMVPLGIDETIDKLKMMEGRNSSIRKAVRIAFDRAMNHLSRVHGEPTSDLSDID

[6] = target: Bromodomain-containing protein 2 (Homo sapiens, UniProt P25440); assay: Binding affinity to human partial length BRD2 bromodomain 2 isoform 1 (E348 to D455 residues) expressed in bacterial expression system by BROMOscan assay
[7] = target: Bromodomain testis-specific protein (Homo sapiens, UniProt Q58F21); assay: Binding affinity to human partial length BRDT bromodomain 2 (K250 to E382 residues) expressed in bacterial expression system by BROMOscan assay
Protein polybromo-1 = Protein polybromo-1 (Homo sapiens, UniProt Q86U86); assay: Binding affinity to human partial length PBRM1 bromodomain 5 (S645 to D766 residues) expressed in bacterial expression system by BROMOscan assay
[8] = target: SWI/SNF-related matrix-associated actin-dependent regulator of chromatin subfamily A member 4 (Homo sapiens, UniProt P51532); assay: Binding affinity to human partial length SMARCA4 (A1448 to S1575 residues) expressed in bacterial expression system by BROMOscan assay
[9] = target: Transcription initiation factor TFIID subunit 1-like (Homo sapiens, UniProt Q8IZX4); assay: Binding affinity to human partial length TAF1L bromodomain 2 (Q1523 to D1654 residues) expressed in bacterial expression system by BROMOscan assay
[10] = target: RAC-alpha serine/threonine-protein kinase (Homo sapiens) (UniProt P31749); assay: Inhibition of AKT1 (unknown origin) at 1 uM relative to control
[11] = target: D(2) dopamine receptor (Homo sapiens) (UniProt P14416); assay: Displacement of [3H]7-OH-DPAT from human recombinant dopamine D2S receptor at 10 uM after 60 mins by scintillation counting analysis relative to control
Chain of D(2) dopamine receptor (Homo sapiens) (P14416 whole entry): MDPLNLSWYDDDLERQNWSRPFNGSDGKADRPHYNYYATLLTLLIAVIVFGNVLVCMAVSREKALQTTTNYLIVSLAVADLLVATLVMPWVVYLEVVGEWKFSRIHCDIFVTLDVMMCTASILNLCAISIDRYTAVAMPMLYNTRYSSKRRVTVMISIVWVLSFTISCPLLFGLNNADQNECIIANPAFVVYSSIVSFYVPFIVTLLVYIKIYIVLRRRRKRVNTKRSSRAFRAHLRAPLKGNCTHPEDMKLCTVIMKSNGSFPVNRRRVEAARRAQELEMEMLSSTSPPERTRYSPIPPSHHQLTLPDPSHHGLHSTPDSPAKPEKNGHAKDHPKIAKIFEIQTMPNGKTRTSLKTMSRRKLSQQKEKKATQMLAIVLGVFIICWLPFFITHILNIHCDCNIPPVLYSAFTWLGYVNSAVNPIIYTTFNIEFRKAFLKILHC

Chain of RAC-alpha serine/threonine-protein kinase (Homo sapiens) (P31749 whole entry): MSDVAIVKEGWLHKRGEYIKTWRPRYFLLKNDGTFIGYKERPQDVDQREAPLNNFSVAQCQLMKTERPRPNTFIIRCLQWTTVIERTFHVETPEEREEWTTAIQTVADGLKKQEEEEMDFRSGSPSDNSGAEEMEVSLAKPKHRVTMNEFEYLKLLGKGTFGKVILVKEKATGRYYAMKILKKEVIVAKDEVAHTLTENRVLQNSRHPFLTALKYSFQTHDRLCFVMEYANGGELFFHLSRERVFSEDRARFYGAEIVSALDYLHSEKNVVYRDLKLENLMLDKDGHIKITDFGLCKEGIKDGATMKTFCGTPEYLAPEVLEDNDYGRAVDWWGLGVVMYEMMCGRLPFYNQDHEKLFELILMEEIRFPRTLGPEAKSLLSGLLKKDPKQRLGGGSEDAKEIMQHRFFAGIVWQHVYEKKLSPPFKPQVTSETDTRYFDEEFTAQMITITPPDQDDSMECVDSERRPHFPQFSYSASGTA
Chain of Bromodomain-containing protein 2 (P25440 whole entry, the tested form may be a part, canonical isoform): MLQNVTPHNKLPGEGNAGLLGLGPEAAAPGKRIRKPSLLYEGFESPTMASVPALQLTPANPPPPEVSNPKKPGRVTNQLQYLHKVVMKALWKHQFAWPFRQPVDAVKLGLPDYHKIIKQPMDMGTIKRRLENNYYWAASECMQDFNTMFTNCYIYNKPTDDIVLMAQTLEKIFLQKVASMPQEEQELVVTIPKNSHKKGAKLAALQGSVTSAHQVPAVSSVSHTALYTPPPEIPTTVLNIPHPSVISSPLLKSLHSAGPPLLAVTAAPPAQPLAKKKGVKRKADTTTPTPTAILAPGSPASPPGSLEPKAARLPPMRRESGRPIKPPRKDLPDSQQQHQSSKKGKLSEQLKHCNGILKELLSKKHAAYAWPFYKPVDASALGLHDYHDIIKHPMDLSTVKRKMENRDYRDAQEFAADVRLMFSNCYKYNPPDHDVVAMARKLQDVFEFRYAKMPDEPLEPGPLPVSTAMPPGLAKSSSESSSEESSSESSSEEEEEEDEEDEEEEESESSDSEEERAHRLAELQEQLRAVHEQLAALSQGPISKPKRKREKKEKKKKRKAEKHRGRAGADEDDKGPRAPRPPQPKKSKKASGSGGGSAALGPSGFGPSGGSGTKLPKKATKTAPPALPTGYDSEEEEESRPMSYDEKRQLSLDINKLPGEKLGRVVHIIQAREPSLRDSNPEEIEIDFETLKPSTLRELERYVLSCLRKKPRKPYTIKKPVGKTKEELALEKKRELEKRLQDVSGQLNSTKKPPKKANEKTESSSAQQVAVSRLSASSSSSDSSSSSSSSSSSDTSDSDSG
Chain of SWI/SNF-related matrix-associated actin-dependent regulator of chromatin subfamily A member 4 (P51532 whole entry, the tested form may be a part): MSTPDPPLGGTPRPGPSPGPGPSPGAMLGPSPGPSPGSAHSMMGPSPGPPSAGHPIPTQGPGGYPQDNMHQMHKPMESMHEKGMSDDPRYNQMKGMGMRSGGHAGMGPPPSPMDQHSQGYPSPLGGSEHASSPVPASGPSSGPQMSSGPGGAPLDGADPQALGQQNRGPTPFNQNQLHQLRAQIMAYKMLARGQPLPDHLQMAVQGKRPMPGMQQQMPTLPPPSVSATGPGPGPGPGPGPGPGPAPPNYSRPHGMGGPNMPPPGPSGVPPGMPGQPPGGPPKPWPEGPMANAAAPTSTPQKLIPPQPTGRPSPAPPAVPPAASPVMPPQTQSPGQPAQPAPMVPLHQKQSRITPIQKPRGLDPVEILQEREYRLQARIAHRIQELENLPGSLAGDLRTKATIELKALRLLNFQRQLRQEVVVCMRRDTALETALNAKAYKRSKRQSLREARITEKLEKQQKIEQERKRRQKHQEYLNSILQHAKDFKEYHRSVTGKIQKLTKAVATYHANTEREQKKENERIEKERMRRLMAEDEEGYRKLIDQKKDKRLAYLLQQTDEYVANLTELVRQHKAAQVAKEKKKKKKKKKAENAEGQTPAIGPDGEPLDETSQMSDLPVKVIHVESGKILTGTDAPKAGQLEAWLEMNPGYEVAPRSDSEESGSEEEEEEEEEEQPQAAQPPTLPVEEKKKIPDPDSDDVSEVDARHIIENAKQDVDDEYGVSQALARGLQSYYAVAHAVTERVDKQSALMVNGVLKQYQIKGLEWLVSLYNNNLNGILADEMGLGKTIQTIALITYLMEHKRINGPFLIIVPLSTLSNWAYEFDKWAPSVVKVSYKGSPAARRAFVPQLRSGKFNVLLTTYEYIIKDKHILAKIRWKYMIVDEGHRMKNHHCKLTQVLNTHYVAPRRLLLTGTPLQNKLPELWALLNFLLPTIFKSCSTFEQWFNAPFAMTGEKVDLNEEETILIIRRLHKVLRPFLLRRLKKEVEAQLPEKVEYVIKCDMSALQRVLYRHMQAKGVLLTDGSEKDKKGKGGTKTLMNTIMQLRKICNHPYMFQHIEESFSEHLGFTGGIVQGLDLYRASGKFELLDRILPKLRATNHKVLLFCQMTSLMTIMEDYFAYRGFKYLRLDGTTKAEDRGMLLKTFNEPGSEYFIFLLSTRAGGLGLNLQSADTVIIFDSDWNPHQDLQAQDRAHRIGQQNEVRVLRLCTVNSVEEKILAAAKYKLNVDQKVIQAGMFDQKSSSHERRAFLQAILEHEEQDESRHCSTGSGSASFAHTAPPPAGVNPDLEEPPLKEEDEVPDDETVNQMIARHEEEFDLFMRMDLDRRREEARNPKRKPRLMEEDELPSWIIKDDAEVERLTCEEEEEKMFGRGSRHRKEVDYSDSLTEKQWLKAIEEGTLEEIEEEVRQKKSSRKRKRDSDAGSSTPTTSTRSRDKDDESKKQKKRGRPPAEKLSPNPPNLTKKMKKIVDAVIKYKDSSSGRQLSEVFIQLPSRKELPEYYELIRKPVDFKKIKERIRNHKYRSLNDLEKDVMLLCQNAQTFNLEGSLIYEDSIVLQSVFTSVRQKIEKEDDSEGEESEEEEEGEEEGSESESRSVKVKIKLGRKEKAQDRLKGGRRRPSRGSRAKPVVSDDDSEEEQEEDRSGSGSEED
Chain of Protein polybromo-1 (Q86U86 whole entry, the tested form may be a part): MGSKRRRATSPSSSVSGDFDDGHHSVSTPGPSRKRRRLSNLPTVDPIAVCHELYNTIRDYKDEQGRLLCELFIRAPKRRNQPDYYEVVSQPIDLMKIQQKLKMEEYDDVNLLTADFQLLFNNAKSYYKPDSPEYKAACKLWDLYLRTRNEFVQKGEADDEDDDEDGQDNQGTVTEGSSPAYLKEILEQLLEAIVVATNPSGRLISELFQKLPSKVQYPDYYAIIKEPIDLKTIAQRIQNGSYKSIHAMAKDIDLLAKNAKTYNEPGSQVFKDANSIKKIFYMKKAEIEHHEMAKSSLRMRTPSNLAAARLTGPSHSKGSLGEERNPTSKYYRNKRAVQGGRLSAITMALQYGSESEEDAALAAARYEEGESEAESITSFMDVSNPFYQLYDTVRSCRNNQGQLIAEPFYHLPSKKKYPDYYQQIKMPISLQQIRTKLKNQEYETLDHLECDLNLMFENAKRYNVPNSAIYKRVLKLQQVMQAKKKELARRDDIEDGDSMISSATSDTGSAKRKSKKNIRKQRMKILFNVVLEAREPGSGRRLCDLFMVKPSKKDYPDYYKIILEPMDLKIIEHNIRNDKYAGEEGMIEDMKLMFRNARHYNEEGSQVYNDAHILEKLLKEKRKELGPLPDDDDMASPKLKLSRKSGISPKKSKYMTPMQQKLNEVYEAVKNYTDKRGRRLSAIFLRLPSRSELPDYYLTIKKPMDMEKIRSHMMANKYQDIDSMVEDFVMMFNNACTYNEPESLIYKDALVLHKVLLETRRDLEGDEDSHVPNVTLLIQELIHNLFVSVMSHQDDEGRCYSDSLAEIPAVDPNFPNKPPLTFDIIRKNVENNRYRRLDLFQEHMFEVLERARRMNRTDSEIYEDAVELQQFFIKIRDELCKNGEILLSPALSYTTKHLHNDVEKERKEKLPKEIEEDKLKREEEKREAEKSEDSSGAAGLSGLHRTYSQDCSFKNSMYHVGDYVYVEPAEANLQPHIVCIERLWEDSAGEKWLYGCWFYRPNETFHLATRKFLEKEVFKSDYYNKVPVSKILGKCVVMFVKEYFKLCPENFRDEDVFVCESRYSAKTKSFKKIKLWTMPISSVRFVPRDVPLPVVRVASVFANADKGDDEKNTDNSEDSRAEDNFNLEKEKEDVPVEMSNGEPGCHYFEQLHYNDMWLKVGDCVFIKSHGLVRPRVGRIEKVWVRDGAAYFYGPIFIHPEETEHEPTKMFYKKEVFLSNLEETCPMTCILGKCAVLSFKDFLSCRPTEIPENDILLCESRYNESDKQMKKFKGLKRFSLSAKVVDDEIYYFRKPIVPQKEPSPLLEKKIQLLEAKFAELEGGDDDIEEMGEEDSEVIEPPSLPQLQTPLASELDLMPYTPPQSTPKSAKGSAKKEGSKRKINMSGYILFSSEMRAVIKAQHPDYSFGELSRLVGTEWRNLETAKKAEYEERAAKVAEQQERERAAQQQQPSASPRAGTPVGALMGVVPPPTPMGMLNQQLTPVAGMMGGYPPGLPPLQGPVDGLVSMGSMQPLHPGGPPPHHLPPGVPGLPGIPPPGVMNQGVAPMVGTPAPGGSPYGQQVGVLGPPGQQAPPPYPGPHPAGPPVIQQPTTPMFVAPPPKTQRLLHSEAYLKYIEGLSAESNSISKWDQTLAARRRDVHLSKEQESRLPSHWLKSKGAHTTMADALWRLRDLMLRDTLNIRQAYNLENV

Row | Structure (SMILES) | IC50 (Daudi) | IC50 [1] | IC50 (LCLC-97TM1) | IC50 [2] | IC50 (NCI-H2122) | IC50 (SCC-3) | IC50 (NCI-H292) | IC50 (NCI-H647) | IC50 (SW1573) | IC50 (DB) | IC50 (JeKo-1) | IC50 (ONS-76) | IC50 (HCC1419) | IC50 (HCC38) | Kd [5] | Kd [6] | Kd [7] | Kd (Protein polybromo-1) | Kd [8] | Kd [9] | other results
1 | C/C=C/Cn1cc(-c2ccc(C(C)(C)O)cc2OC)c2cc[nH]c2c1=O | 3.77 µM | 20 µM | 20 µM | 20 µM | 20 µM | 20 µM | 20 µM | 20 µM | 20 µM | 16.9 µM | 10.8 µM | 20 µM | 20 µM | 20 µM | > 10 µM | 3.3 µM | 2.6 µM | > 10 µM | > 10 µM | > 10 µM | IC50 (MCF7): 20 µM; IC50 (SK-BR-3): 20 µM; IC50 [3]: 20 µM; IC50 (DLD-1): 20 µM; IC50 [4]: 20 µM; IC50 (NCI-H28): 20 µM; IC50 (LNCaP): 17.8 µM; IC50 (SW948): 20 µM; IC50 (UACC-62): 20 µM; IC50 (HCC95): 20 µM; IC50 (HOP-62): 20 µM; inhibition [10]: 2.5%; Activity [11]: 6%
2 | C/C=C/Cn1cc(-c2cc(OC)c(C(C)(C)O)cc2OC)c2cc(C)[nH]c2c1=O | – | – | – | – | – | – | – | – | – | – | – | – | – | – | > 10 µM | > 10 µM | 6.6 µM | > 10 µM | > 10 µM | > 10 µM | –
3 | C/C=C/Cn1cc(-c2ccc(C(=O)N3CCOCC3)cc2)c2cc[nH]c2c1=O | 20 µM | 20 µM | 20 µM | 20 µM | 20 µM | 20 µM | 20 µM | 20 µM | 20 µM | 20 µM | 9.95 µM | 20 µM | 20 µM | 20 µM | > 10 µM | 4.3 µM | 3.5 µM | 26 µM | 28 µM | 0.61 µM | IC50 (MCF7): 20 µM; IC50 (SK-BR-3): 20 µM; IC50 [3]: 17.7 µM; IC50 (DLD-1): 20 µM; IC50 [4]: 20 µM; IC50 (NCI-H28): 20 µM; IC50 (LNCaP): 16.7 µM; IC50 (SW948): 20 µM; IC50 (UACC-62): 20 µM; IC50 (HCC95): 20 µM; IC50 (HOP-62): 20 µM; inhibition [10]: -2.1%; Activity [11]: -3%
4 | C/C=C/Cn1cc(-c2cc(OC)c(C(=O)N3CCOCC3)cc2OC)c2cc(C)[nH]c2c1=O | 2 µM | 2 µM | 2 µM | 2 µM | 2 µM | 2 µM | 2 µM | 2 µM | 2 µM | 2 µM | 2 µM | 2 µM | 2 µM | 2 µM | > 10 µM | > 10 µM | > 10 µM | > 10 µM | > 10 µM | > 10 µM | IC50 (MCF7): 1.34 µM; IC50 (SK-BR-3): 2 µM; IC50 [3]: 2 µM; IC50 (DLD-1): 2 µM; IC50 [4]: 2 µM; IC50 (NCI-H28): 2 µM; IC50 (LNCaP): 2 µM; IC50 (SW948): 2 µM; IC50 (UACC-62): 2 µM; IC50 (HCC95): 2 µM; IC50 (HOP-62): 2 µM; inhibition [10]: 1.5%; Activity [11]: 13%
